# According to patent publication US20050197350A1, “Novel quinoline, tetrahydroquinazoline, and pyrimidine derivatives and methods of treatment related to the use thereof” (TAISHO PHARMACEUTICAL CO., LTD., priority 2003, published 2005):
# System: MCH receptors
# Assay: MCH receptor activity class (method not given)
# Settings: MCH receptor activity class 1-3 (percent of control at 10^-7 M or IC50)
row,SMILES,class
1,Cc1cccc([N+](=O)[O-])c1NC(=O)NC[C@H]1CC[C@@H](Nc2cc(N(C)C)c3ccccc3n2)CC1 [compound 2401],3 (Class 3 The value of percent of control at 10^−7 M was more than 60% or the value of IC50 was more than 200 nM.)
2,"CN(C)c1cc(N[C@H]2CC[C@@H](CNC(=O)Nc3c(Cl)cc(Cl)cc3Cl)CC2)nc2ccccc12 [compound 2369, N-[(cis-4-{[4-(dimethylamino)quinolin-2-yl]amino}cyclohexyl)methyl]-N′-(2,4,6-trichlorophenyl)urea]",1 (Class 1: The value of percent of control at 10^−7 M was less than 40% or the value of IC50 was less than 50 nM.)
3,CN(C)c1ccnc(N[C@H]2CC[C@@H](NC(=S)NC3CC4CCC3C4)CC2)n1 (relative stereo) [compound 2355],3 (Class 3 The value of percent of control at 10^−7 M was more than 60% or the value of IC50 was more than 200 nM.)
4,Cc1ccc(NC(=O)NC[C@H]2CC[C@@H](Nc3nccc(N(C)C)n3)CC2)cc1 [compound 2441],3 (Class 3 The value of percent of control at 10^−7 M was more than 60% or the value of IC50 was more than 200 nM.)

# Same assay, conditions: MCH receptor; class by percent of control at 10^-7 M or IC50
row,SMILES,class
1,CC(C)CNC(=S)N[C@H]1CC[C@@H](Nc2nc3c(c(N(C)C)n2)CCCC3)CC1 [compound 1944],3 (Class 3 The value of percent of control at 10^−7 M was more than 60% or the value of IC50 was more than 200 nM.)
2,COc1ccc(Cl)cc1NC(=O)N[C@H]1CC[C@@H](Nc2nc3c(c(N(C)C)n2)CCCC3)CC1 [compound 1899],3 (Class 3 The value of percent of control at 10^−7 M was more than 60% or the value of IC50 was more than 200 nM.)
3,CN(C)c1nc(N[C@H]2CC[C@@H](NC(=S)Nc3cc(Cl)c(Cl)cc3Cl)CC2)nc2c1CCCC2 [compound 2000],3 (Class 3 The value of percent of control at 10^−7 M was more than 60% or the value of IC50 was more than 200 nM.)
4,CN(C)c1nc(N[C@H]2CC[C@@H](NC(=S)Nc3ccc(F)cc3)CC2)nc2c1CCCC2 [compound 1941],3 (Class 3 The value of percent of control at 10^−7 M was more than 60% or the value of IC50 was more than 200 nM.)
5,CN(C)c1cc(N[C@H]2CC[C@@H](CNC(=O)c3cc(C(F)(F)F)ccc3F)CC2)nc2ccccc12 [compound 192],3 (Class 3 The value of percent of control at 10^−7 M was more than 60% or the value of IC50 was more than 200 nM.)

# Same assay, conditions: activity class 1-3: percent of control at 10^-7 M or IC50
row,SMILES,class
1,CCOC(=O)NC[C@H]1CC[C@@H](Nc2nccc(N(C)C)n2)CC1 [compound 1647],3 (Class 3 The value of percent of control at 10^−7 M was more than 60% or the value of IC50 was more than 200 nM.)
2,COc1ccccc1OC(=O)NC[C@H]1CC[C@@H](Nc2nc3c(c(N(C)C)n2)CCCC3)CC1 [compound 1604],3 (Class 3 The value of percent of control at 10^−7 M was more than 60% or the value of IC50 was more than 200 nM.)

# Same assay, conditions: activity class per percent of control at 10^-7 M or IC50
row,SMILES,class
1,Cc1cccc(C(=O)N[C@H]2CC[C@@H](Nc3nc4c(c(N(C)C)n3)CCCC4)CC2)c1N [compound 1058],3 (Class 3 The value of percent of control at 10^−7 M was more than 60% or the value of IC50 was more than 200 nM.)
2,CN(C)c1nc(N[C@H]2CC[C@@H](CNC(=O)c3ccc(I)o3)CC2)nc2c1CCCC2 [compound 1068],3 (Class 3 The value of percent of control at 10^−7 M was more than 60% or the value of IC50 was more than 200 nM.)

# Same assay, conditions: class 1-3 by percent of control at 10^-7 M or IC50
row,SMILES,class
1,CN(C)c1nc(N[C@H]2CC[C@@H](NC(=O)c3cnc4ccccc4n3)CC2)nc2c1CCCC2 [compound 550],1 (Class 1: The value of percent of control at 10^−7 M was less than 40% or the value of IC50 was less than 50 nM.)
2,COc1cc(C(=O)N[C@H]2CC[C@@H](Nc3nc4c(c(N(C)C)n3)CCCC4)CC2)cc(OC)c1OC [compound 551],3 (Class 3 The value of percent of control at 10^−7 M was more than 60% or the value of IC50 was more than 200 nM.)
3,CN(C)c1nc(N[C@H]2CC[C@@H](NC(=O)Cc3ccccc3Br)CC2)nc2c1CCCC2 [compound 516],3 (Class 3 The value of percent of control at 10^−7 M was more than 60% or the value of IC50 was more than 200 nM.)

# Same assay, conditions: class by percent of control at 10^-7 M or IC50
row,SMILES,class
1,Cc1cc(C(=O)N[C@H]2CC[C@@H](Nc3nccc(N(C)C)n3)CC2)nn1C(C)(C)C [compound 308],3 (Class 3 The value of percent of control at 10^−7 M was more than 60% or the value of IC50 was more than 200 nM.)
2,CN(C)c1nc(N[C@H]2CC[C@@H](NC(=O)C3CC(=O)c4ccccc43)CC2)nc2c1CCCC2 (relative stereo) [compound 960],2 (Class 2: The value of percent of control at 10^−7 M was from 40% to 60% or the value of IC′50 was from 50 nM to 200 nM.)
3,CN(C)c1nc(N[C@H]2CC[C@@H](NCc3c[nH]c4ccc(Br)cc34)CC2)nc2c1CCCC2 [compound 1334],3 (Class 3 The value of percent of control at 10^−7 M was more than 60% or the value of IC50 was more than 200 nM.)
4,COc1ccc(CSC2(CC(=O)N[C@H]3CC[C@@H](Nc4cc(N(C)C)c5ccccc5n4)CC3)CCCCC2)cc1 [compound 714],3 (Class 3 The value of percent of control at 10^−7 M was more than 60% or the value of IC50 was more than 200 nM.)
5,CN(C)c1ccnc(N[C@H]2CC[C@@H](NC(=O)Nc3c(F)cc(Br)cc3F)CC2)n1 [compound 2206],3 (Class 3 The value of percent of control at 10^−7 M was more than 60% or the value of IC50 was more than 200 nM.)
6,CCOc1ccccc1NC(=S)N[C@H]1CC[C@@H](Nc2nc3c(c(N(C)C)n2)CCCC3)CC1 [compound 1782],2 (Class 2: The value of percent of control at 10^−7 M was from 40% to 60% or the value of IC′50 was from 50 nM to 200 nM.)
7,CN(C)c1nc(N[C@H]2CC[C@@H](NC(=O)Nc3ccc4c(c3)OCO4)CC2)nc2c1CCCC2 [compound 1718],3 (Class 3 The value of percent of control at 10^−7 M was more than 60% or the value of IC50 was more than 200 nM.)
8,CN(C)c1nc(N[C@H]2CC[C@@H](NC(=O)Nc3c(Br)cc(F)cc3Br)CC2)nc2c1CCCC2 [compound 1799],3 (Class 3 The value of percent of control at 10^−7 M was more than 60% or the value of IC50 was more than 200 nM.)
9,COc1ccc(Br)cc1CNC[C@H]1CC[C@@H](Nc2nc3c(c(N(C)C)n2)CCCC3)CC1 [compound 1387],3 (Class 3 The value of percent of control at 10^−7 M was more than 60% or the value of IC50 was more than 200 nM.)
10,CN(C)c1nc(N[C@H]2CC[C@@H](NC(=O)Nc3ccc(Cc4ccccc4)cc3)CC2)nc2c1CCCC2 [compound 1882],3 (Class 3 The value of percent of control at 10^−7 M was more than 60% or the value of IC50 was more than 200 nM.)
11,Cc1cc([N+](=O)[O-])ccc1NC(=O)N[C@H]1CC[C@@H](Nc2cc(N(C)C)c3ccccc3n2)CC1 [compound 2144],3 (Class 3 The value of percent of control at 10^−7 M was more than 60% or the value of IC50 was more than 200 nM.)
12,CN(C)c1nc(N[C@H]2CC[C@@H](CNC(=O)c3cc(C(C)(C)C)nn3C)CC2)nc2c1CCCC2 [compound 648],3 (Class 3 The value of percent of control at 10^−7 M was more than 60% or the value of IC50 was more than 200 nM.)
13,COc1cccc(CNC[C@H]2CC[C@@H](Nc3nc4c(c(N(C)C)n3)CCCC4)CC2)c1OC [compound 1418],3 (Class 3 The value of percent of control at 10^−7 M was more than 60% or the value of IC50 was more than 200 nM.)
14,COc1ccc(OC)c(CNC[C@H]2CC[C@@H](Nc3nccc(N(C)C)n3)CC2)c1 [compound 1246],3 (Class 3 The value of percent of control at 10^−7 M was more than 60% or the value of IC50 was more than 200 nM.)
15,CN(C)c1ccnc(N[C@H]2CC[C@@H](NC(=O)c3sc(Cl)c(Cl)c3Cl)CC2)n1 [compound 350],3 (Class 3 The value of percent of control at 10^−7 M was more than 60% or the value of IC50 was more than 200 nM.)
16,CN(C)c1ccnc(N[C@H]2CC[C@@H](CNC(=O)c3ccc(Br)s3)CC2)n1 [compound 925],3 (Class 3 The value of percent of control at 10^−7 M was more than 60% or the value of IC50 was more than 200 nM.)
17,COc1ccc(CNC[C@H]2CC[C@@H](Nc3cc(N(C)C)c4ccccc4n3)CC2)c(OC)c1C [compound 1167],3 (Class 3 The value of percent of control at 10^−7 M was more than 60% or the value of IC50 was more than 200 nM.)

# Same assay, conditions: class by percent of control at 10^−7 M or IC50
row,SMILES,class
1,"Cc1cc(N(C)C)nc(N[C@H]2CC[C@@H](NC(=O)c3ccc(C)c(F)c3)CC2)n1 [compound 2965, N-(cis-4-{[4-(dimethylamino)-6-methylpyrimidin-2-yl]amino}cyclohexyl)-3-fluoro-4-methylbenzamide]",1 (Class 1: The value of percent of control at 10^−7 M was less than 40% or the value of IC50 was less than 50 nM.)
2,"Cc1cnc(N[C@H]2CC[C@@H](CNC(=O)c3ccc(C(F)(F)F)c(F)c3)CC2)nc1N(C)C [compound 2705, N-[(cis-4-{[4-(dimethylamino)-5-methylpyrimidin-2-yl]amino}cyclohexyl)methyl]-3-fluoro-4-(trifluoromethyl)benzamide]",2 (Class 2: The value of percent of control at 10^−7 M was from 40% to 60% or the value of IC′50 was from 50 nM to 200 nM.)
3,"Cc1cc(C(=O)NC[C@H]2CC[C@@H](Nc3ncc(C)c(N(C)C)n3)CC2)ccc1Br [compound 2703, 4-bromo-N-[(cis-4-{[4-(dimethylamino)-5-methylpyrimidin-2-yl]amino}cyclohexyl)methyl]-3-methylbenzamide]",1 (Class 1: The value of percent of control at 10^−7 M was less than 40% or the value of IC50 was less than 50 nM.)
4,"Cc1cc(N(C)C)nc(N[C@H]2CC[C@@H](C(=O)NCc3ccc(F)cc3F)CC2)n1 [compound 2818, cis-N-(2,4-difluorobenzyl)-4-{[4-(dimethylamino)-6-methylpyrimidin-2-yl]amino}cyclohexanecarboxamide]",1 (Class 1: The value of percent of control at 10^−7 M was less than 40% or the value of IC50 was less than 50 nM.)
5,"Cc1cnc(N[C@H]2CC[C@@H](CNC(=O)c3ccc(Cl)c(Cl)c3)CC2)nc1N(C)C [compound 2707, 3,4-dichloro-N-[(cis-4-{[4-(dimethylamino)-5-methylpyrimidin-2-yl]amino}cyclohexyl)methyl]benzamide]",1 (Class 1: The value of percent of control at 10^−7 M was less than 40% or the value of IC50 was less than 50 nM.)
